# Assay results reported in patent US8043826B2, “Device for monitoring inhibition of platelet function response” (Medical Innovations International, Inc., priority 2005, dated 2011).
# Tested on: platelets
# Experiment: Assaying platelet aspirin response: luciferin/luciferase light emission (extracellular ATP) in arachidonic-acid-treated diluted whole blood drawn before and after taking aspirin
# Format: cell-based, human
# Conditions: individuals of FIGS. 2A and 2C; blood drawn after aspirin 325 mg; no-aspirin sample very steep
# Protocol: Volunteers who had not taken aspirin in the previous 24 hours underwent a finger prick to draw blood. Blood (2 μl) was diluted into 1 ml of buffer (PBS, 0.9% NaCl, 10 mM sodium phosphate, pH 7.0) in a clear test tube. An aliquot (15 μl) of luciferin/luciferase solution (containing 10 mg/ml luciferin and 10 μg/ml luciferase) was added to the diluted blood. The solution was mixed and placed in a Zylux FEMPTOMASTER FB12 photon counter. A baseline reading of the light emission was taken. The test tube was then withdrawn, and 5 μl of 15 mM arachidonic acid was added to the solution and the solution was mixed. The test tube was then reinserted in the photon counter and light emission readings were taken for approximately 2 to 4 minutes.
# The volunteer then swallowed or chewed an aspirin (325 mg). A blood sample was taken, and the process was repeated. The results from blood drawn from an individual before and after taking aspirin were compared.
smiles,measurement,value
CC(=O)Oc1ccccc1C(=O)O [aspirin],"slope of light emission vs. time after arachidonic acid is added, aspirin sample",almost flat
